molecular target: GST tagged truncated human mutant G2019S LRRK2 (Homo sapiens (Human), UniProt Q5S007, G2019S); experiment: LRRK2 Km ATP LanthaScreen Assay; type: biochemical; conditions: G2019S LRRK2, 134 μM ATP (Km ATP), mean values
In short: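 Enzyme (GST-tagged, truncated) was preincubated with compound for 15 min at RT in 50 mM Tris pH 8.5, 10 mM MgCl2, 0.01% Brij-35, 1 mM EGTA, 2 mM DTT and 0.05 mM orthovanadate. Fluorescein-LRRKtide and 134 μM ATP (Km) were then added for 90 min. EDTA and Tb-anti-pERM antibody stopped the reaction; the TR-FRET 520/495 ratio gave 4-parameter IC50s, reported as mean pIC50.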

Sequence of GST tagged truncated human mutant G2019S LRRK2 (Q5S007 970-2527 G2019S): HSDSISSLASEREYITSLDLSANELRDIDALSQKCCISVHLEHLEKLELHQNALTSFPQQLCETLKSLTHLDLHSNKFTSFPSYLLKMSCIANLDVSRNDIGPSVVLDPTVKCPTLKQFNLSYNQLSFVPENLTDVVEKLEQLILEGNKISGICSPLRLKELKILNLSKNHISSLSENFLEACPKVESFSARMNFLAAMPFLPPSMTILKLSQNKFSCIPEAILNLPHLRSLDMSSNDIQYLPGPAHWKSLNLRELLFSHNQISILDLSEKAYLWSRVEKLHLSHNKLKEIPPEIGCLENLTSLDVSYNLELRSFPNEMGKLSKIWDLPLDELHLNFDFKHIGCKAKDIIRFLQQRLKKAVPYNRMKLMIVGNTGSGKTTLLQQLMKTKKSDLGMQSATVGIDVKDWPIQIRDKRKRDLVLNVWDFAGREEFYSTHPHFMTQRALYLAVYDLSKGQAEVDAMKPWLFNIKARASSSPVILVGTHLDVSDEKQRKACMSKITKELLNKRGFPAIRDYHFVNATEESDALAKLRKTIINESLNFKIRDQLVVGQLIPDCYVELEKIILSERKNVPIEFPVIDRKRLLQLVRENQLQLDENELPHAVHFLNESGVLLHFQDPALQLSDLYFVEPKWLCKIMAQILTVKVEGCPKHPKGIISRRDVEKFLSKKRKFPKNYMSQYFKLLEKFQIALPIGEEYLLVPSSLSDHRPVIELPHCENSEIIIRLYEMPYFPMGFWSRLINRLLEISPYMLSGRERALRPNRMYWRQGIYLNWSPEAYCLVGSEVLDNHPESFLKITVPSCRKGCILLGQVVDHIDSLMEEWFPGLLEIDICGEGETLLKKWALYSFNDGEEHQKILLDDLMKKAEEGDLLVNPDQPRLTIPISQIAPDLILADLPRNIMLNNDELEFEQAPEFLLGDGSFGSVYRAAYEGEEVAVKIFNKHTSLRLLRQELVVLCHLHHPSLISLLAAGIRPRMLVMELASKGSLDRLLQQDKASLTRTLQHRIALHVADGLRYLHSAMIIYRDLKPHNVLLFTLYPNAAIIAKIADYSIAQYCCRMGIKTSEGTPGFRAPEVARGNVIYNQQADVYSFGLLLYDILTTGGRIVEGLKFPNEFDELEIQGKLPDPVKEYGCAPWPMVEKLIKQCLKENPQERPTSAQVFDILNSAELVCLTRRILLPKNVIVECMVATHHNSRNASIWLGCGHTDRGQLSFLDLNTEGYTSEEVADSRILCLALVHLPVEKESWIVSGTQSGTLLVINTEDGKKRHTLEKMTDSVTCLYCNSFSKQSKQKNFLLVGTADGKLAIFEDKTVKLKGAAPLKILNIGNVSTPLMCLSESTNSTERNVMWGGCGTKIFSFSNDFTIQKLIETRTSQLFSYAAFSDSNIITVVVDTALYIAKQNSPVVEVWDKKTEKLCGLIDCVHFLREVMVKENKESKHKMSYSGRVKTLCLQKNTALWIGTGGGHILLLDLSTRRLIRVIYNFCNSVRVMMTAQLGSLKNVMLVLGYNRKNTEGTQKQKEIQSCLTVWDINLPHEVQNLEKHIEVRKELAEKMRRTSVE

| SMILES | LRRK2 pIC50 |
| --- | --- |
| Cc1c(Nc2ncc3cc(Cl)c(C4CCN(C[C@H](O)c5ccccc5F)CC4)cc3n2)cnn1C1CC1 [Ex-4.203, (1R)-2-(4-{6-chloro-2-[(1-cyclopropyl-5-methyl-1H-pyrazol-4-yl)amino]quinazolin-7-yl}piperidin-1-yl)-1-(2-fluorophenyl)ethan-1-ol] | 8.03 |
| Cc1c(Nc2ncc3cc(Cl)c(C4CCN(C[C@@H](O)c5ccc(F)c(F)c5)CC4)cc3n2)cnn1C1CC1 [Ex-4.200, (1S)-2-(4-{6-chloro-2-[(1-cyclopropyl-5-methyl-1H-pyrazol-4-yl)amino]quinazolin-7-yl}piperidin-1-yl)-1-(3,4-difluorophenyl)ethan-1-ol] | 8.76 |
| CC1(n2ncc(Nc3ncc4cc(Cl)c(C5CCN(CCC#N)CC5)cc4n3)c2Cl)CC1 [Ex-8.13, 3-[4-(6-chloro-2-{[5-chloro-1-(1-methylcyclopropyl)-1H-pyrazol-4-yl]amino}quinazolin-7-yl)piperidin-1-yl]propanenitrile] | >9.20 |
| Cc1c(Nc2ncc3cc(Cl)c(C4CCN([C@H]5COC[C@H]5O)CC4)cc3n2)cnn1C (single isomer, unassigned) [Ex-2.67, (3S,4S) or (3R,4R) 4-(4-{6-chloro-2-[(1,5-dimethyl-1H-pyrazol-4-yl)amino]quinazolin-7-yl}piperidin-1-yl)oxolan-3-ol] | >9.20 |
| Cc1c(Nc2ncc3cc(Cl)c(C4CCN(C[C@H](O)c5cc(F)cc(F)c5)CC4)cc3n2)cnn1C1CC1 [Ex-4.198, (1R)-2-(4-{6-chloro-2-[(1-cyclopropyl-5-methyl-1H-pyrazol-4-yl)amino]quinazolin-7-yl}piperidin-1-yl)-1-(3,5-difluorophenyl)ethan-1-ol] | 7.88 |
| Cc1cc(Nc2ncc3cc(Cl)c([C@H]4CCN(C5COC5)C[C@@H]4F)cc3n2)sn1 (single isomer, unassigned) [Ex-4.51, (3S,4S) or (3R,4R) 6-chloro-7-[3-fluoro-1-(oxetan-3-yl)piperidin-4-yl]-N-(3-methyl-1,2-thiazol-5-yl)quinazolin-2-amine] | >9.20 |
| Cc1c(Nc2ncc3cc(Cl)c(C4CCN(CC5(O)CCC5)CC4)cc3n2)cnn1C1CC1 [Ex-4.215, 1-[(4-{6-chloro-2-[(1-cyclopropyl-5-methyl-1H-pyrazol-4-yl)amino]quinazolin-7-yl}piperidin-1-yl)methyl]cyclobutan-1-ol] | 8.57 |
| F[C@H]1CN(C2COC2)CC[C@@H]1c1cc2nc(Nc3cnn(C4CC4)c3Cl)ncc2cc1Cl (single isomer, unassigned) [Ex-4.35, (3S,4S) or (3R,4R) 6-chloro-N-(5-chloro-1-cyclopropyl-1H-pyrazol-4-yl)-7-[3-fluoro-1-(oxetan-3-yl)piperidin-4-yl]quinazolin-2-amine] | >9.20 |
| Cc1cc2cnc(Nc3cnn(C)c3Cl)nc2cc1[C@@H]1CCN([C@@H]2COC[C@@H]2O)C[C@H]1F (single isomer, unassigned) [Ex-4.259, (3S,4S)(3S,4S) or (3S,4S)(3R,4R) or (3R,4R)(3S,4S) or (3R,4R)(3R,4R) 4-(4-(2-((5-chloro-1-methyl-1H-pyrazol-4-yl)amino)-6-methylquinazolin-7-yl)-3-fluoropiperidin-1-yl)tetrahydrofuran-3-ol] | >9.20 |
| Cc1c(Nc2ncc3cc(Cl)c([C@@H]4CCN([C@H]5COC[C@H]5O)C[C@H]4F)cc3n2)cnn1C1CC1(F)F (single isomer, unassigned) [Ex-4.180, (R)(3S,4S)(3S,4S) or (R)(3S,4S)(3R,4R) or (R)(3R,4R)(3S,4S) or (R)(3R,4R)(3R,4R) or (S)(3S,4S)(3S,4S) or (S)(3S,4S)(3R,4R) or (S)(3R,4R)(3S,4S) or (S)(3R,4R)(3R,4R) 4-(4-(6-chloro-2-((1-(2,2-difluorocyclopropyl)-5-methyl-1H-pyrazol-4-yl)amino)quinazolin-7-yl)-3-fluoropiperidin-1-yl)tetrahydrofuran-3-olyl]amino}quinazolin-7-yl)-3-fluoropiperidin-1-yl]oxolan-3-ol] | >9.20 |
| CC1(O)CCC(c2cc3nc(Nc4cnn(C5CC5)c4)ncc3cc2Cl)CC1 (stereo not drawn) [Ex-1.18, cis-or trans-4-(6-chloro-2-((1-cyclopropyl-1H-pyrazol-4-yl)amino)quinazolin-7-yl)-1-methylcyclohexan-1-ol] | 8.59 |
| O[C@@H]1COC[C@@H]1N1CCC(c2cc3nc(Nc4cnn(C56CC(C5)C6)c4)ncc3cc2Cl)CC1 (single isomer, unassigned) [Ex-4.152, (3S,4S) or (3R,4R) 4-[4-(2-{[1-(bicyclo[1.1.1]pentan-1-yl)-1H-pyrazol-4-yl]amino}-6-chloroquinazolin-7-yl)piperidin-1-yl]oxolan-3-ol] | >9.20 |
| Cc1cc2cnc(Nc3cnn(C4CC4)c3Cl)nc2cc1C1CCN([C@]2(C)COC[C@@H]2O)CC1 (single isomer, unassigned) [Ex-2.37, (3S,4S) or (3R,4R) 4-(4-{2-[(5-chloro-1-cyclopropyl-1H-pyrazol-4-yl)amino]-6-methylquinazolin-7-yl}piperidin-1-yl)-4-methyloxolan-3-ol] | 7.78 |
| CC1(N2CC[C@H](c3cc4nc(Nc5cnn(C6CC6(F)F)c5Cl)ncc4cc3Cl)[C@@H](F)C2)COC[C@@H]1O (single isomer, unassigned) [Ex-4.11, (R)(3S,4S)(3S,4S) or (R)(3S,4S)(3R,4R) or (R)(3R,4R)(3S,4S) or (R)(3R,4R)(3R,4R) or (S)(3S,4S)(3S,4S) or (S)(3S,4S)(3R,4R) or (S)(3R,4R)(3S,4S) or (S)(3R,4R)(3R,4R) 4-(6-chloro-2-((5-chloro-1-(2,2-difluorocyclopropyl)-1H-pyrazol-4-yl)amino)quinazolin-7-yl)-3-fluoropiperidin-1-yl)-4-methyltetrahydrofuran-3-ol] | 8.73 |
| Cc1c(Nc2ncc3cc(Cl)c([C@@H]4CCN(C5COC5)C[C@H]4F)cc3n2)cnn1C1CC1(F)F (single isomer, unassigned) [Ex-4.177, (R)(3S,4S) or (S)(3S,4S) or (R)(3R,4R) or (S)(3R,4R) 6-chloro-N-[1-(2,2-difluorocyclopropyl)-5-methyl-1H-pyrazol-4-yl]-7-[(3R,4R)-3-fluoro-1-(oxetan-3-yl)piperidin-4-yl]quinazolin-2-amine] | 9.16 |
| FC1COCC1N1CC[C@@H](c2cc3nc(Nc4cnn(C5CC5(F)F)c4Cl)ncc3cc2Cl)C(F)C1 (stereo partly drawn) [Ex-7.1] | 9.01 |
| Cc1cc2cnc(Nc3cnn(C)c3C)nc2cc1C1CCN([C@]2(C)COC[C@@H]2O)CC1 (single isomer, unassigned) [Ex-2.81, (3S,4S) or (3R,4R) 4-(4-{2-[(1,5-dimethyl-1H-pyrazol-4-yl)amino]-6-methylquinazolin-7-yl}piperidin-1-yl)-4-methyloxolan-3-ol] | 7.35 |

same assay, conditions: G2019S LRRK2, 134 μM ATP (Km ATP), mean values; read-out: LRRK2 pIC50 (converted)

| SMILES | IC50 |
| --- | --- |
| CO[C@@H]1COC[C@]1(C)N1CCC(c2cc3nc(Nc4cnn(C5CC5)c4C)ncc3cc2Cl)CC1 (single isomer, unassigned) [Ex-7.3, (3S,4S) or (3R,4R) 6-chloro-N-(1-cyclopropyl-5-methyl-1H-pyrazol-4-yl)-7-(1-(4-methoxy-3-methyltetrahydrofuran-3-yl)piperidin-4-yl)quinazolin-2-amine] | 11.7 nM |

Source: patent publication US12540131B2 (Merck Sharp & Dohme LLC, priority 2019, dated 2026)
